Assay results published in ChEMBL document CHEMBL1201862, “PubChem BioAssay data set” (2004).
The source made the active and inactive calls.

How the values were obtained:
[1] = molecular target: Induced myeloid leukemia cell differentiation protein Mcl-1 (Homo sapiens, UniProt Q07820); assay type: functional
[2] = HGIII-sPLA2 enzyme inhibition potency – biochemical, QFRET, IC50, dose response (AID 743457);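 also: green fluorescence rise as the enzyme cleaves BODIPY PC-A2 in liposomes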
[3] = molecular target: T1, High affinity choline transporter 1 (Homo sapiens, UniProt Q9GZV3); experiment: human choline transporter blockers, potency – cell-based, 5-point CRC, membrane potential dye, dose response (AID 504840); assay type: functional
T1 sequence (Q9GZV3 whole entry): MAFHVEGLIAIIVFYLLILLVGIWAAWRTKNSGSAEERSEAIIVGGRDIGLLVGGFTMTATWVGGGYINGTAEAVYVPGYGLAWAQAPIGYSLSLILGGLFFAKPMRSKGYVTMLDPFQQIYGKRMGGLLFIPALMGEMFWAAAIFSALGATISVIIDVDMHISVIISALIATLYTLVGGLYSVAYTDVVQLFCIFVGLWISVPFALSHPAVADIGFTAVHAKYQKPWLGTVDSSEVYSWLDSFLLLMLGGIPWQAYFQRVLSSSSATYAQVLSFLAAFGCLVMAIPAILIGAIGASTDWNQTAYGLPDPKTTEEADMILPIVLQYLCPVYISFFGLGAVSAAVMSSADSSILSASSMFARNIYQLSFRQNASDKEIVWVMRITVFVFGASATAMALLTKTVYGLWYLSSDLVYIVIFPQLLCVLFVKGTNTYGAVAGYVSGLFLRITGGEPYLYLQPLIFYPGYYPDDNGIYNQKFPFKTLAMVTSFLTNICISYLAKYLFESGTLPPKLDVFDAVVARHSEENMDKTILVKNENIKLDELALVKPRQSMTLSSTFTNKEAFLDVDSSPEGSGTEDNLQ

[4] = molecular target: T2, Short transient receptor potential channel 4 (Mus musculus, UniProt Q9QUQ5); experiment: calcium entry via TRPC4 opening agents – cell-based, HEK293 TRPC4/mu-opioid, Fluo-4 calcium, dose response (AID 434937); assay type: functional
T2 sequence (Q9QUQ5 whole entry): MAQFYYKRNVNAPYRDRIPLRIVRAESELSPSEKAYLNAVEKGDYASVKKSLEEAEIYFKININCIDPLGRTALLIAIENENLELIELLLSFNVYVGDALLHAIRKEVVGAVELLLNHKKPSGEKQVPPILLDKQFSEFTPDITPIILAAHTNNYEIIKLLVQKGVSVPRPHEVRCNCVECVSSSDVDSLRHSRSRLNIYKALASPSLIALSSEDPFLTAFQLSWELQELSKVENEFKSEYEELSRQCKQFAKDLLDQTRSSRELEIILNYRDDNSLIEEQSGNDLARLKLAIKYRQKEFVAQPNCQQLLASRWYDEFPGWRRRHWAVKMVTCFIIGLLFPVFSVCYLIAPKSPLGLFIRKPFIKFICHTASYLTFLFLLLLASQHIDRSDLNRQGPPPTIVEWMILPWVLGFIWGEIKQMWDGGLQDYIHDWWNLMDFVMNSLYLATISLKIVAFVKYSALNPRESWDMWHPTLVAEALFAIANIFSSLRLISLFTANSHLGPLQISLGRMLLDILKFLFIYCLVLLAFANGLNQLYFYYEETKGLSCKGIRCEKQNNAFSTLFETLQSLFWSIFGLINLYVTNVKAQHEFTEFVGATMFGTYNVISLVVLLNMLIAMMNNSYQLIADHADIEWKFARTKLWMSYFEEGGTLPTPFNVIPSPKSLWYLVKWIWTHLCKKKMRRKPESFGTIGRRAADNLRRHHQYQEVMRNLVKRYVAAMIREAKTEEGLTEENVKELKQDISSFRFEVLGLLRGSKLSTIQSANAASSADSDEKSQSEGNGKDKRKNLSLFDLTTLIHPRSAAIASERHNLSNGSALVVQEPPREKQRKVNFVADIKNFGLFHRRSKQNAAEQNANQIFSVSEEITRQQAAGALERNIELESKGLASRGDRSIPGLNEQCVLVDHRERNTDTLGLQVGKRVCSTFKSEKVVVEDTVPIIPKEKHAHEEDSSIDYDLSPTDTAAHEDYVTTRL

[5] = microbe, parasite or virus in culture; assay type: functional; details: Mycobacterium tuberculosis
Vero = experiment: cells; assay type: functional; details: Chlorocebus sabaeus
Beta-galactosidase = Beta-galactosidase (Escherichia coli, UniProt Q8VNN2); experiment: Dose response counterscreen for EBI2 assay utilizing the enzyme, b-galactosidase.; assay type: functional
[6] = Luminescence Cell-Based Dose Confirmation HTS to Identify Activators of 5'UTR Stem-Loop Driven Alpha-Synuclein mRNA Translation in H4 Neuroglioblastoma Cells. [Related pubchem assays: 1829 (Project Summary), 1814 (Primary HTS)]; assay type: functional
Protein skinhead-1 = molecular target: T3, Protein skinhead-1 (Caenorhabditis elegans, UniProt P34707); assay type: functional
T3 sequence (P34707 whole entry): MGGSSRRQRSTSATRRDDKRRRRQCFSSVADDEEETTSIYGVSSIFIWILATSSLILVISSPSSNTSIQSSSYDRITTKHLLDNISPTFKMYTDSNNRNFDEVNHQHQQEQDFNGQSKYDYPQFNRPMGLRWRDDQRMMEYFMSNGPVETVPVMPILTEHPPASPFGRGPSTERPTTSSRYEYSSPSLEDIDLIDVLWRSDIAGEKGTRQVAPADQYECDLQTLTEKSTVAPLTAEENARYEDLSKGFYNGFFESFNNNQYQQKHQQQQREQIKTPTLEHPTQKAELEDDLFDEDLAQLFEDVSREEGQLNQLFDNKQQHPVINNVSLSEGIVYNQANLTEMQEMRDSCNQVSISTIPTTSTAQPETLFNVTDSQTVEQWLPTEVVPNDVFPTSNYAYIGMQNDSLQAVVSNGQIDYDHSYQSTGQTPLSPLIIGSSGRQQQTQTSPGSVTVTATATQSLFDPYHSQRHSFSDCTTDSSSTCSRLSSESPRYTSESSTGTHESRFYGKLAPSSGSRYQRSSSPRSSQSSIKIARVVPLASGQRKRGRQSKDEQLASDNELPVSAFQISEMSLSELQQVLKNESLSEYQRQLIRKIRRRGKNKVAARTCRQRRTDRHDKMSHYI

[7] = molecular target: T4, Nuclear receptor subfamily 0 group B member 1 (Homo sapiens, UniProt P51843); assay type: functional, cell-based;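 also: HEK293T cells transfected with SF-1 and DAX-1 plus StAR promoter luciferase reporter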
T4 sequence (P51843 whole entry): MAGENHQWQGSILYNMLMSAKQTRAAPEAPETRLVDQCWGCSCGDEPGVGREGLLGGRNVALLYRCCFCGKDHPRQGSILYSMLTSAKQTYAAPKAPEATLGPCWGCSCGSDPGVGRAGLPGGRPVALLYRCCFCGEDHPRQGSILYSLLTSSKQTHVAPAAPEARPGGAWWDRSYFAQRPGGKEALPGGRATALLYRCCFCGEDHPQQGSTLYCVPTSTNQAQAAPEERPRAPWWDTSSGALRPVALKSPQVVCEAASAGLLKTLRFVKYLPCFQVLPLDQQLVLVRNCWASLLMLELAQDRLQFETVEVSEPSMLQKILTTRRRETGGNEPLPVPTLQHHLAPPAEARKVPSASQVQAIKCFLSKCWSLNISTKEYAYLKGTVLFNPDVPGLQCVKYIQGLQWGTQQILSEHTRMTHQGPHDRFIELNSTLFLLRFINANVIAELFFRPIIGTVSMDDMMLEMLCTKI

cells [8] = assay type: functional, cell-based
H4 = experiment: Luminescence Cell-Based Dose Response HTS to Identify Activators of 5'UTR Stem-Loop Driven Prion Protein mRNA Translation in H4 Neuroglioblastoma Cells. [Related pubchem assays: 1829 (Project Summary), 1814 (Primary HTS)]; assay type: functional; details: Homo sapiens
[9] = Luminescence Cell-Based Dose Response HTS to Identify Activators of Luciferase Translation or Activity in H4 […] Cells. [Related pubchem assays: 1829 (Project Summary), 1814 (Primary HTS)]; assay type: functional
[10] = blockade of melanocortin 4 receptor signaling – cell-based, plate reader, cherry pick, counter-screen for LGR2 antagonist project, dose response (AID 743444); assay type: functional;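 also: transfected HEK 293 cells stimulated with alpha-MSH peptide; potency of inhibitors of the alpha-MSH evoked signal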
[11] = A549 cell cytotoxicity, dose response, cytotoxicity control, plate reader, cherry-pick, antagonist series (AID 743412); assay type: functional, cell-based
[12] = toxicity toward HepG2 liver cells – cell-based, plate reader, cherry-pick, antagonist series, cytotoxicity control, dose response (AID 743416); assay type: functional
[13] = blockers of bursicon-stimulated LGR2 cAMP reporter – cell-based, HEK293, CRE-luciferase reporter, cherry pick, set 2, dose response (AID 743343); assay type: functional;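 also: transfected cells were stimulated with diluted bursicon conditioned medium after compound addition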
cells [14] = assay type: functional, cell-based; details: HEK-CNG
Galanin receptor type 3 = molecular target: T5, Galanin receptor type 3 (Homo sapiens, UniProt O60755); experiment: Fluorescence-based cell-based primary high throughput dose response assay to identify antagonists of the Galanin Receptor 3 (GalR3).; assay type: functional
T5 sequence (O60755 whole entry): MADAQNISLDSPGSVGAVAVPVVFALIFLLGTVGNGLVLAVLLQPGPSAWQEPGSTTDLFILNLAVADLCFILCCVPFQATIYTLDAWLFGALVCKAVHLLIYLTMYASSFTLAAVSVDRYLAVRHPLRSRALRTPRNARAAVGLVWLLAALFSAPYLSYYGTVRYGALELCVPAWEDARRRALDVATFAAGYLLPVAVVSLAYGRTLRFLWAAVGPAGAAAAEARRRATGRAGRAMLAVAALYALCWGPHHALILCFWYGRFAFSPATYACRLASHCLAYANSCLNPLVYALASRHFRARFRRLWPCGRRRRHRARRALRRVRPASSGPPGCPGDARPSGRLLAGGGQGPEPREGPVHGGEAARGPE

[15] = molecular target: T6, Heat shock factor protein 1 (Mus musculus, UniProt P38532); experiment: enhancement of HSF1-driven luciferase signal – cell-based, NIH3T3, luminescence, dose retest, confirmation (AID 435004); assay type: functional;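 also: stress induced by proteasome inhibitor MG132 added 30 min after compound; luciferase reporter driven by HSF1 response element in NIH3T3 cells; actives raise luminescence as potentiators of the MG132 stress response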
T6 sequence (P38532 whole entry): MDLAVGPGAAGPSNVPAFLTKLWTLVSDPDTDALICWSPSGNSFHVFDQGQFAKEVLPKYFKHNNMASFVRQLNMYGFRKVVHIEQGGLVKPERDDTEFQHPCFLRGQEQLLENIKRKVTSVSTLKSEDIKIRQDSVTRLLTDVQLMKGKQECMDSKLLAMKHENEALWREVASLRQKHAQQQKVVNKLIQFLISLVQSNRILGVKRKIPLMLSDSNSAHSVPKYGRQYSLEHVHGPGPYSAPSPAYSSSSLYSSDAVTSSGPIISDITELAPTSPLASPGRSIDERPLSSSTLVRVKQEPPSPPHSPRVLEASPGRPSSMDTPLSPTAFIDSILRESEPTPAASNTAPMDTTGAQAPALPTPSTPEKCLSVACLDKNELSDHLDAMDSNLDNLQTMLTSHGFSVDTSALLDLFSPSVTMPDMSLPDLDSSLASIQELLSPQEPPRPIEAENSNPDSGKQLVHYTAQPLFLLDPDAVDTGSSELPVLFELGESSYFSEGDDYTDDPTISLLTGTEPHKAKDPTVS

[16] = viability loss in THP-1 monocytes – THP-1 cells, cytotoxicity control for Vif-APOBEC3G degradation inhibitor project, dose response (AID 1117359); assay type: functional; details: THP-1
[17] = viability loss in HeLa cells – cytotoxicity control for MgcRacGAP inhibitor project, dose response (AID 624300); assay type: functional
[18] = molecular target: T7, Rac GTPase-activating protein 1 (Homo sapiens, UniProt Q9H0H5); experiment: blockers of MgcRacGAP-driven Rac1 GTP hydrolysis – biochemical, ADP Hunter fluorescence, primary and confirmatory, confirmation (AID 624330); assay type: functional
T7 sequence (Q9H0H5 whole entry): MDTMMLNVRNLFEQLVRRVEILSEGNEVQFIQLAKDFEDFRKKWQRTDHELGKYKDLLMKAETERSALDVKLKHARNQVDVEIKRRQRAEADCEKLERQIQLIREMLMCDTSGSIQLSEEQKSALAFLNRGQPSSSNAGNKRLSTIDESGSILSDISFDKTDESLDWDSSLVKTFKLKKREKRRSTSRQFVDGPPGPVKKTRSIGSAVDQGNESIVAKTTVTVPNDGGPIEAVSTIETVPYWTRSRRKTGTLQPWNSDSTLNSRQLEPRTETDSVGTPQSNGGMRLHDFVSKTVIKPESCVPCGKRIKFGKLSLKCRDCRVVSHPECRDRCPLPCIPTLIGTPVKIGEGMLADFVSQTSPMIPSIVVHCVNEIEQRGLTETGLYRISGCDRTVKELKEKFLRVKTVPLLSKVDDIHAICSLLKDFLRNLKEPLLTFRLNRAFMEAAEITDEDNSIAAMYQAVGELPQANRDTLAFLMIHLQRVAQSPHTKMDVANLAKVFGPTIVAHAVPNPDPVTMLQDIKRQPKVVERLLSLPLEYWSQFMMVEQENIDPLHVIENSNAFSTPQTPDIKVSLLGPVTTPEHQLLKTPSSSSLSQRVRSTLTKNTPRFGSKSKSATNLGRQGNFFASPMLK

Chain of Beta-galactosidase (Q8VNN2 whole entry): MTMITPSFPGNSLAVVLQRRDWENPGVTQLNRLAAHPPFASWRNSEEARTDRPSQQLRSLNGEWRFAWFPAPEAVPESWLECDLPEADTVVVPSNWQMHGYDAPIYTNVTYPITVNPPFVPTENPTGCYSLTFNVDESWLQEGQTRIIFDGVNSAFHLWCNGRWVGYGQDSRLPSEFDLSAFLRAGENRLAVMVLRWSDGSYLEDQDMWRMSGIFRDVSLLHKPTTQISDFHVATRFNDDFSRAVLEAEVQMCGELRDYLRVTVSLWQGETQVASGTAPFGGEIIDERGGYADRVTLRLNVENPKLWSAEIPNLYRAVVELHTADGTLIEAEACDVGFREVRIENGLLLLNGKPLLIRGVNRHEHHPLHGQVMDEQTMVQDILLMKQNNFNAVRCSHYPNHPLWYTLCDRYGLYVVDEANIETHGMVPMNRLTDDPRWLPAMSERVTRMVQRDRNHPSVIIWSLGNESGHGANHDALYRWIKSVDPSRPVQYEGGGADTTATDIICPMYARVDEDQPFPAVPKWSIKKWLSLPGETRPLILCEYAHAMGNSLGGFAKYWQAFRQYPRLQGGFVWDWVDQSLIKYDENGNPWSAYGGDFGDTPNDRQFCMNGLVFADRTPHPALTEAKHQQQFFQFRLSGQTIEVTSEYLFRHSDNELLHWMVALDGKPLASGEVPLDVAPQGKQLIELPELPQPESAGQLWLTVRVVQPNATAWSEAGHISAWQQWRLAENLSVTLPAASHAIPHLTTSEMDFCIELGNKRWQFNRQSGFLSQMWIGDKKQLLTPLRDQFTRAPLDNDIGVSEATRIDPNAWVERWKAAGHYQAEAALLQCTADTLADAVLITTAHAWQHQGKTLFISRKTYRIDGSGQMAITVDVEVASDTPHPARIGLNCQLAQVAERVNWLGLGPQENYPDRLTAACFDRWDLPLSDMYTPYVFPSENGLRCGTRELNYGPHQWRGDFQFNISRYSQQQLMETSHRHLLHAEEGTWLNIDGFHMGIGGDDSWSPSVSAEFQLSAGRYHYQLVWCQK
Chain of Induced myeloid leukemia cell differentiation protein Mcl-1 (Q07820 whole entry): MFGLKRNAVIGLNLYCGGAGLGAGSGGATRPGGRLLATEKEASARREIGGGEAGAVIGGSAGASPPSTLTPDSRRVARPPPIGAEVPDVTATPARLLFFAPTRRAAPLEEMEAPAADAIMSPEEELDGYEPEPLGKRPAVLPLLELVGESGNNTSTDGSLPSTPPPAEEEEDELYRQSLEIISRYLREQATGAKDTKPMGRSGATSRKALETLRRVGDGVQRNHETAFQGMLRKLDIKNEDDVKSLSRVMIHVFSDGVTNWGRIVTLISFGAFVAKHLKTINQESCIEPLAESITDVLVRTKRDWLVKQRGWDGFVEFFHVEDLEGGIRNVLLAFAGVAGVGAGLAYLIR

CN(C)c1ccc(NC(=O)c2cccc(C(=O)Nc3ccc(N(C)C)cc3)n2)cc1
IC50 [1]: 3.33 µM (active) | IC50 [2]: 40 µM (inactive)

Cc1cccc(C(=O)NNC(=S)NC(=O)c2ccccc2)c1
IC50 [3]: 7.59 µM (active) | EC50 [4]: 2.11 µM (active) | IC50 [2]: > 122 µM (inactive) | CC50 [5]: 24 µM (active) | CC50 (Vero): > 25 µM (active)

C=CCc1cccc(CNc2nc3ccccc3n2CCN2CCOCC2)c1O
IC50 (Beta-galactosidase): > 80 µM (inactive)

O=C(c1cc(COc2ccc(F)cc2Cl)on1)N1C[C@H]2C[C@H]3C[C@@H](C2)C[C@H]1C3
EC50 [6]: 917 nM (active) | IC50 (Protein skinhead-1): > 100 µM (inactive) | IC50 [7]: > 67.5 µM (inactive) | IC50 (cells [8]): > 67.5 µM (inactive) | EC50 (H4): 47.6 µM (active) | EC50 [9]: 26.2 µM (active)

COc1ccc(C(=O)Nc2nnc(SCC(=O)NCc3ccco3)s2)c(OC)c1
AC50 [10]: 4.64 µM (active) | IC50 [7]: > 67.5 µM (inactive) | IC50 (cells [8]): > 67.5 µM (inactive) | AC50 [11]: > 52 µM (inactive) | AC50 [12]: > 52 µM (inactive) | AC50 [13]: 6.14 µM (active)

CC(C)NC(=O)NC(=O)COC(=O)Cc1c(F)cccc1Cl
EC50 (cells [14]): > 29.9 µM (inactive) | IC50 (Galanin receptor type 3): > 29.9 µM (inactive)

O=C(/C=C/c1ccc(OCCCF)cc1)N1CCN(Cc2ccccc2)CC1
IC50 (Beta-galactosidase): > 80 µM (inactive)

S=C(N/N=C/c1cccs1)NC1CC2CCC1C2 (stereo not given)
IC50 [2]: > 122 µM (inactive) | EC50 [15]: > 260 µM (inactive) | CC50 [16]: > 40 µM (active)

COc1ccc(-c2cc(NC=O)c3ncc(-c4cc(OC)c(OC)c(OC)c4)n3c2)cc1
IC50 [7]: > 67.6 µM (inactive) | IC50 (cells [8]): > 67.6 µM (inactive)

C/C(=N\Nc1ccc(S(=O)(=O)N2CCCCC2)cn1)c1ccc(O)cc1
CC50 [17]: 100 µM (active) | IC50 [18]: 23.4 µM (active)
